Where “and” joins values, the source holds several entries; their conditions need not be identical. Equal values may be shown once.
Tests used:
[1] = tested on: animal models of non-obstructive cholestasis; design: method as in PMID 26177448; settings: cited from earlier work
PBC patients = tested on: PBC patients; design: method as in PMID 25500425; settings: cited from earlier work
human GPBAR1 = biological target: T1, human GPBAR1 (Homo sapiens, UniProt Q8TDU6); experiment: GPBAR1 transactivation (cAMP responsive element luciferase reporter) in transfected HEK-293T cells; format: cell-based; settings: for EC50: HEK-293T cells transfected with GPBAR1, concentration-response, mean ± standard error
T1 construct: expressed in transfected cells; host or cells: HEK-293T
T1 sequence (Q8TDU6 1-330): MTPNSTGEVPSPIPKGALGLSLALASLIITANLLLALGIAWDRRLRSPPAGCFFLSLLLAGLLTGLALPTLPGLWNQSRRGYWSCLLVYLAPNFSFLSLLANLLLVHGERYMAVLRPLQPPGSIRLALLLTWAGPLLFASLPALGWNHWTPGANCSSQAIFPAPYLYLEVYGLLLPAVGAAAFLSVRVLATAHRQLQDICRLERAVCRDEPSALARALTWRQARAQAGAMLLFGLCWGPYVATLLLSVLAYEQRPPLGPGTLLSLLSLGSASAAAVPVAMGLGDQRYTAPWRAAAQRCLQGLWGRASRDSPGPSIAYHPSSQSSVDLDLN
Source text: Luciferase activities were normalized with Renilla activities.

FXR [2] = biological target: T2, FXR (Homo sapiens, UniProt Q96RI1); experiment: FXR transactivation luciferase reporter assay in transfected HepG2 cells; settings: HepG2 cells transfected with FXR; for EC50: EC50 FXR transactivation, 100 nM to 25 μM, mean ± standard error
T2 sequence (Q96RI1 1-486): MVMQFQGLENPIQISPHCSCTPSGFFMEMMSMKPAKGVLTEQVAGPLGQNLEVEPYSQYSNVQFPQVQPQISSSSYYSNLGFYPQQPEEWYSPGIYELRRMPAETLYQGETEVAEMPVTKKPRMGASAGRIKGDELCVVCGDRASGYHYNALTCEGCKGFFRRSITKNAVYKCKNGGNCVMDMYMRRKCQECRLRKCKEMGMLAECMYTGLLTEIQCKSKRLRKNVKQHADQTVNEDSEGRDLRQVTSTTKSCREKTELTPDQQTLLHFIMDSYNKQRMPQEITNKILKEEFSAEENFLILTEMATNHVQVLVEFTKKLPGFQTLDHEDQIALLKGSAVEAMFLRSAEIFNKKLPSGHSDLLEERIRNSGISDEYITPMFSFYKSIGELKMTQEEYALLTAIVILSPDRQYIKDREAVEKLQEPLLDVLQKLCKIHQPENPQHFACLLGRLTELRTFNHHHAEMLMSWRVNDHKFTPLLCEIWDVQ
T2 sequence (P19793 1-462 partner): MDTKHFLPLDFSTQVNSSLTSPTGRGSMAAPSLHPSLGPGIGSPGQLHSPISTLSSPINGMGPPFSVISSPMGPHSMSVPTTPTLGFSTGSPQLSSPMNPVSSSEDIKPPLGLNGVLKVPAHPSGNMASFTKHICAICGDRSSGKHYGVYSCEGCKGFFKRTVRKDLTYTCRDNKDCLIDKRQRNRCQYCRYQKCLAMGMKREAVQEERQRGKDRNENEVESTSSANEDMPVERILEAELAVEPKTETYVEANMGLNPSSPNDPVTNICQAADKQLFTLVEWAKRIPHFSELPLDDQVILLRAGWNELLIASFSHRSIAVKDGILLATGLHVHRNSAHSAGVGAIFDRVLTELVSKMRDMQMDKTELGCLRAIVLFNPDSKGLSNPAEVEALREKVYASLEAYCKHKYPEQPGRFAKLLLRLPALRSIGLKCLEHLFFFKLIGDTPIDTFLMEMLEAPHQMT
Procedure: (A) HepG2 cells were transfected with pSG5-FXR, pSG5-RXR, pCMV-βgal, and p(hsp27)TKLUC vectors. […] CDCA (1, 10 μM) and 6-ECDCA (3, 1 μM) were used as a positive control. […] Cells were stimulated with 7–19 (10 μM). […] In both panels, results are expressed as mean ± standard error. *p < 0.05 versus not treated cells (NT).
HepG2 cells were transfected with FXR as described above and used in a luciferase reporter assay. […] Results are expressed as mean ± standard error.
For FXR and GP BAR1 mediated transactivations, HepG2 cells and HEK293T cells were transfected as described previously[25]. […] After treatments, 20 μL of cellular lysates were read using Dual Luciferase Reporter Assay System (Promega Italia s.r.l., Milan, Italy) according manufacturer specifications using the Glomax 20/20 luminometer (Promega Italia s.r.l., Milan, Italy). […] At 18 h post stimulations, cellular lysates were assayed for luciferase and Renilla activities using the Dual-Luciferase Reporter assay system (E1980, Promega). Luminescence was measured using Glomax 20/20 luminometer (Promega). Luciferase activities were normalized with Renilla activities.

[3] = tested on: rodent models of portal hypertension; design: method as in PMID 26539823; settings: cited from earlier work
GPBAR1 = tested on: GPBAR1; design: method as in PMID 25247751; settings: cited from earlier work
FXR [4] = biological target: T2, FXR; design: method as in PMID 25247751; settings: any concentration tested; cited from earlier work
[5] = biological target: T3, GST-fusion FXR-LBD / SRC-1 peptide (Homo sapiens, UniProt Q96RI1); experiment: Alpha screen coactivator recruitment assay, direct interaction of FXR with SRC-1; format: biochemical; settings: ligands at 2 μM, effect of 6-ECDCA (3) settled as 100%
T3 construct: 10 nM of purified GST-tagged FXR-LBD protein
T3 sequence (Q96RI1 262-486 limits assumed): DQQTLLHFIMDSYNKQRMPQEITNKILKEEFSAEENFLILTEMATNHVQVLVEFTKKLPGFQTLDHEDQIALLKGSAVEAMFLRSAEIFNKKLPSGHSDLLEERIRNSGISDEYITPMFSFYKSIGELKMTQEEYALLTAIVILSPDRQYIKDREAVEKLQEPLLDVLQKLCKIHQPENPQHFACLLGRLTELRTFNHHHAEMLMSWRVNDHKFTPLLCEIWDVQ
T3 sequence (Q15788 676-700 partner limits assumed): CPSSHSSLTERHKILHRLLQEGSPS
Procedure: CDCA (1) and 6-ECDCA (3) were used as positive controls at 2 μM concentration and the effect of 6-ECDCA (3) was settled as 100%. […] Results are expressed as percentage of the effect of 3 arbitrarily settled as 100%. NT is referred to the experiment in absence of ligand. […] (B,C) Real-time PCR analysis of mRNA expression on FXR target genes BSEP (B), and OSTα (C) in HepG2 cells primed with 10 μM of compound 19. CDCA (1) was used as a positive control at 10 μM. (D) Real-time PCR analysis of mRNA expression of GPBAR1 target gene Pro-glucagon in GLUTAg cells stimulated with 10 μM of compounds 7 and 19, and TLCA (2) used as a positive control at 10 μM. Values are normalized to GAPDH and are expressed relative to those of not treated cells (NT) which are arbitrarily settled to 1. The relative mRNA expression is expressed as 2(-ΔΔCt). Anti-GST-coated acceptor beads were used to capture the GST-fusion FXR-LBD whereas the biotinylated-SRC-1 peptide was captured by the streptavidin donor beads. Upon illumination at 680 nm, chemical energy is transferred from donor to acceptor beads across the complex streptavidin-Donor/Src-1-Biotin/[…]-LBD/Anti-GST-Acceptor and a signal is produced. The assay was performed in white, low-volume, 384-well Optiplates (PerkinElmer) using a final volume of 25 μL containing final concentrations of 10 nM of purified GST-tagged FXR-LBD protein, 30 nM biotinylated Src-1 peptide, 20 μg/mL anti-GST acceptor beads acceptor beads and 10 μg/mL of streptavidin donor bead (PerkinElmer). The assay buffer contained 50 mM Tris (pH 7.4), 50 mM KCl, 0.1% BSA, and 1 mM DTT. The stimulation times with 1 μL of tested compound (dissolved in 50% DMSO/H2O) were fixed to 30 min at room temperature. The concentration of DMSO in each well was maintained at a final concentration of […]. After the addition of the detection mix (acceptor and donor beads) the plates were incubated in the dark for 4 h at room temperature and then were read in Envision microplate analyzer (PerkinElmer).

[6] = tested on: GPBAR1 target gene Pro-glucagon in GLUTAg cells; experiment: Real-time PCR of GPBAR1 target gene Pro-glucagon in GLUTAg cells; format: cell-based, mouse; settings: 10 μM, relative to not treated cells
Procedure: (§1) Figure 10 (A) Coactivator recruitment assay measuring a direct interaction of FXR with SRC-1; ligands at 2 μM. Results are expressed as percentage of the effect of 3 arbitrarily settled as 100%. NT is referred to the experiment in absence of ligand. […] (B,C) Real-time PCR analysis of mRNA expression on FXR target genes BSEP (B), and OSTα (C) in HepG2 cells primed with 10 μM of compound 19. CDCA (1) was used as a positive control at 10 μM. (D) Real-time PCR analysis of mRNA expression of GPBAR1 target gene Pro-glucagon in GLUTAg cells stimulated with 10 μM of compounds 7 and 19, and TLCA (2) used as a positive control at 10 μM. Values are normalized to GAPDH and are expressed relative to those of not treated cells (NT) which are arbitrarily settled to 1. The relative mRNA expression is expressed as 2(−ΔΔCt).
(§2) Total RNA was isolated from HepG2 or GLUTAg cells using the TRIzol reagent according to the manufacturer’s specifications (Invitrogen). One microgram of purified RNA was treated with DNase-I and reverse transcribed with Superscript II (Invitrogen). For Real Time PCR, 10 ng template was dissolved in 25 μL containing 200 nmol/L of each primer and 12.5 μL of 2 × SYBR FAST Universal ready mix (Invitrogen). […] The relative mRNA expression was calculated and expressed as 2-(ΔΔCt). […]

[7] = tested on: FXR target genes BSEP and OSTα in HepG2 cells; experiment: Real-time PCR of FXR target genes BSEP and OSTα in HepG2 cells; format: cell-based, human; settings: 10 μM, relative to not treated cells
Procedure: as §1, §2

In the case of CC[C@H]1[C@@H](O)[C@@H]2[C@H](CC[C@]3(C)[C@@H]([C@H](C)CCO)CC[C@@H]23)[C@@]2(C)CC[C@@H](O)C[C@@H]12 [compound 5], the “Liver damage and itching” value [1] is listed as “attenuates liver damage in animal models of non-obstructive cholestasis without inducing itching”.
For CC[C@H]1[C@@H](O)[C@@H]2[C@H](CC[C@]3(C)[C@@H]([C@H](C)CCC(=O)O)CC[C@@H]23)[C@@]2(C)CC[C@@H](O)C[C@@H]12 [6-ECDCA/OCA, 6-ECDCA], the “Patients who experienced the symptoms (pruritus)” value (PBC patients) is given as “approx. 80%” and the “PBC patients who halted the treatment due to the severity of itching” value (PBC patients; one trial) is given as “up to 40%”.
In the case of CCC1C(O)C2C3CCC(C(C)CC(=O)O)C3(C)CCC2C2(C)CCCCC12 (stereo not drawn) [compound 13], the EC50 (human GPBAR1) is reported as 4.3 µM and the EC50 (FXR [2]) is reported as 2.3 µM and 2.32 µM.
For CC[C@@H]1[C@H](O)[C@@H]2[C@H](CC[C@]3(C)[C@@H]([C@H](C)CCCO)CC[C@@H]23)[C@@]2(C)CC[C@@H](O)C[C@@H]12 [compound 6, EUDCOH], the Portal pressure [3] is listed as “exerts portal pressure-lowering effects”, the EC50 (GPBAR1) is listed as 1.03 µM and the FXR transactivation (FXR [4]) is listed as “failing in transactivating FXR at any concentration tested”.
For CCC1C(O)C2C3CCC(C(C)CCO)C3(C)CCC2C2(C)CCC(O)CC12 (stereo not drawn) [compound 14], the EC50 (human GPBAR1) was 1 µM and 1.02 µM and the EC50 (FXR [2]) was 5.3 µM.
In the case of C/C=C1/[C@H](O)C2C3CC[C@H]([C@H](C)CCO)[C@@]3(C)CCC2[C@@]2(C)CC[C@@H](O)C[C@@H]12 (stereo partly drawn) [compound 10], the “Recruitment of SRC-1 co-activator to FXR” value [5] is reported as “completely unable to recruit SRC-1”.
In the case of CCC1C(O)C2C3CCC(C(C)CCO)C3(C)CCC2C2(C)CCC(O)CC12 (stereo not drawn) [compound 7], the “GPBAR1 potency compared with TLCA (2)” value (human GPBAR1; HEK-293T cells transfected with GPBAR1, 10 μM) is reported as “potency similar to that of TLCA”, the “GPBAR1 transactivation (cAMP-luciferase reporter gene)” value (human GPBAR1; HEK-293T cells transfected with GPBAR1, compounds at 10 μM) is reported as “inducers of cAMP-luciferase reporter gene” and the EC50 (human GPBAR1) is reported as 0.91 µM. For the same molecule, the “Recruitment of SRC-1 co-activator to FXR” value [5] was “completely unable to recruit SRC-1” and the Pro-glucagon gene expression [6] was “increased pro-glucagon gene expression”.
With CCC1C(O)C2C3CCC(C(C)CCCCCOS(=O)(=O)O)C3(C)CCC2C2(C)CCC(O)CC12 (stereo not drawn) [compound 19] the EC50 (human GPBAR1) was 0.95 µM, the “BSEP mRNA upregulation” value [7] was 2 fold and the “OSTα mRNA expression” value [7] was “robust induction of OSTα mRNA”. The EC50 (FXR [2]) was 1.7 µM, the “FXR transactivation (luciferase reporter)” value (FXR [2]; compounds at 10 μM) was “the most potent FXR agonist generated in this study” and the “Recruitment of SRC-1 co-activator to FXR” value [5] was “at least comparable, if not better, to that measured for 3”. For the same molecule, the Pro-glucagon gene expression [6] was “increased pro-glucagon gene expression”.
With CC[C@@H]1[C@@H](O)C2C3CC[C@H]([C@H](C)CCO)[C@@]3(C)CCC2[C@@]2(C)CC[C@@H](O)C[C@@H]12 (stereo partly drawn) [compound 9] the “Recruitment of SRC-1 co-activator to FXR” value [5] was “completely unable to recruit SRC-1”.
